The record followed here is patent publication US8524291B2, “Anti-obesity product and its method of preparation” (Chongquing Institute of Ecological Materia Medica Co. Ltd., priority 2006, dated 2013).

A short description of the test: 40-day study in ob/ob mice on high fat diet: body weight and fat, metabolic parameters, liver indicators. The class given is in vivo, C57 black ob/ob mice. The note with it: day 43. Here is the method: Forty C57 black ob/ob mice were allocated to five groups of eight for study over 40 days as follows:
High fat diet—no treatment;
High fat diet—100 mg/kg/OD PYN22;
High fat diet—300 mg/kg/OD PYN22; • High fat diet—3 mg/kg/OD Rosiglitazone (positive control).
Mice were weighed twice per week and food intake measured daily throughout the study. Any laxative effects of treatments were visually examined and recorded.
Oral glucose tolerance tests were conducted on Day 7, Day 21 and Day 35.
Energy expenditure was measured at Day 14.
Fasting plasma insulin and lipids were measured on Days 7, 21 and 35.
Three days before sacrifice, 100 ul blood samples were taken from all animals to provide plasma glucose, insulin, free fatty acid, triglycerides, cholesterol and HDL-cholesterol.
At sacrifice, body mass and fat mass were calculated; the same parameters were also calculated for liver, heart and white adipose tissues.

`CN(CCOc1ccc(CC2SC(=O)NC2=O)cc1)c1ccccn1` (centres unmarked) [Rosiglitazone]: the “actual liver weight (FIG. 11C)” value is listed as “no effect” and the “relative (% body weight) liver weight (FIG. 11D)” value is “no effect”.
